Where two headings read alike, the source gives them in different places.
Assays:
[1] = system: extrinsic pathway of coagulation
From the text: The prothrombin time (PT) and its derived measures of prothrombin ratio (PR) and international normalized ratio (INR) are measures of the extrinsic pathway of coagulation. […] The prothrombin time is the time it takes blood plasma to clot after addition of tissue factor (obtained from animals). The result (in seconds) of the prothrombin time performed in a normal individual will vary depending the analytical system and method used. This is due to differences between different batches of manufacturer's tissue factor used to perform the test.
The international normalized ratio (INR) was devised to standardize the results. The INR is the ratio of a patient's prothrombin time (PT) to a normal (control) sample, raised to the power of the International Sensitivity Index (ISI) value for the analytical system used.

[2] = for AUCinf, adjusted geometric mean / AUClast, adjusted geometric mean / Cmax, adjusted geometric mean: healthy subjects, N=25; for pharmacokinetic interaction with LCZ696 (steady-state concentration-time profiles): in the presence and absence of LCZ696, FIG. 1a, 1b
From the text: This study employs a single blind, randomized, two-period, crossover design. All subjects are blinded to the treatment to eliminate study bias. Each subject participates in a screening period, two baseline periods, and two treatment periods. A washout period of at least 10 days but not more than 14 days separates each treatment period.
This study employs a single blind, randomized, two-period, crossover design. Twenty six healthy male and female subjects are enrolled to ensure at least 20 completers. Each subject participates in a screening period (day-21 to day-2), two baseline periods (day-1), two treatment periods, a washout period of at least 10 days separating the treatment periods, and a study completion evaluation. Subjects undergo routine safety testing during screening, including physical, routine hematology, biochemistry, urinalysis, viral serology screening, pregnancy testing (female subjects), urine drug screening, alcohol screening, standard 12-lead electrocardiogram (ECG), and vital signs assessments to establish eligibility.
Subjects are randomized into the following two treatment sequences during treatment Period 1 and Period 2 as shown.
Treatment Period 1: Those subjects who successfully pass screening (Days-21 to -2) report to the study center in the morning of the day prior to the initial dosing (Day-1) for admission into the study center, at which time they undergo baseline safety evaluations as conducted during screening (except viral serology). All baseline safety evaluation results should be available prior to first dosing. Subjects are domiciled for at least 11 days during each treatment period.
Serial samples for drug/placebo pharmacokinetics are collected on Day 4 for up to 12 hours post morning dose.
In the evening prior to each of full pharmacokinetic (PK) assessment days (Day 4 & day 5) the subjects fast overnight (10-12 hours) prior to dosing, and continue to fast until 4 hours post-dose. On Day 1, 2, 3, 6, 7, 8, 9, and 10 the subjects are dosed following an overnight fast of 10-12 hours and receive breakfast 30 minutes post-dose, and evening snacks are provided 30 minutes after evening dosing on all dosing days.
Treatment Period 2: Subjects are required to return to the study center following a washout period of at least 10 days for period 2 baseline evaluation (Day-1). All study related activities including pharmacokinetic sampling for all treatments follow the same schedule as in Period 1.

[3] = healthy subjects, Warfarin 25 mg single dose with LCZ696 200 mg b.i.d. or with placebo, N=25
[4] = LCZ696 200 mg b.i.d. + Warfarin 25 mg single dose on Day 5
[5] = Placebo + Warfarin 25 mg single dose on Day 5

CC(=O)CC(c1ccccc1)c1c(O)c2ccccc2oc1=O (racemic) [Warfarin, (RS)-4-hydroxy-3-(3-oxo-1-phenylbutyl)-2H-chromen-2-one]
Mean INR (AUCINR/144), geometric mean [1, 3]: 1.30
Mean Prothrombin time (AUCPT/144), geometric mean [1, 3]: 16.51 s
Peak INR, geometric mean [1, 3]: 1.90
Peak prothrombin time, geometric mean [1, 3]: 22.00 s
interaction with LCZ696 as indicated by the INR ([1]; warfarin (racemic) administration, FIG. 3): lack of interaction
interaction with LCZ696 as indicated by prothrombin times ([1]; warfarin (racemic) in the presence and absence (placebo) of LCZ696, FIG. 2): lack of interaction

CC(=O)C[C@H](c1ccccc1)c1c(O)c2ccccc2oc1=O [R-Warfarin]
AUCinf, adjusted geometric mean [2, 4]: 64891.96 ng·h/mL
AUClast, adjusted geometric mean [2, 4]: 58796.87 ng·h/mL
Cmax, adjusted geometric mean [2, 4]: 1325.29 ng/mL
AUCinf, adjusted geometric mean [2, 5]: 66153.48 ng·h/mL
AUClast, adjusted geometric mean [2, 5]: 59534.11 ng·h/mL
Cmax, adjusted geometric mean [2, 5]: 1373.71 ng/mL
pharmacokinetic interaction with LCZ696 (steady-state concentration-time profiles) [2]: lack of pharmacokinetic interaction

CC(=O)C[C@@H](c1ccccc1)c1c(O)c2ccccc2oc1=O [S-Warfarin]
AUCinf, adjusted geometric mean [2, 4]: 50677.20 ng·h/mL
AUClast, adjusted geometric mean [2, 4]: 46647.81 ng·h/mL
Cmax, adjusted geometric mean [2, 4]: 1344.45 ng/mL
AUCinf, adjusted geometric mean [2, 5]: 52027.31 ng·h/mL
AUClast, adjusted geometric mean [2, 5]: 47570.37 ng·h/mL
Cmax, adjusted geometric mean [2, 5]: 1414.20 ng/mL
pharmacokinetic interaction with LCZ696 (steady-state concentration-time profiles) [2]: lack of pharmacokinetic interaction

From patent publication US20140329872A1, “TREATMENT OF HYPERTENSION AND/OR PREVENTION OR TREATMENT OF HEART FAILURE IN A MAMMAL RECEIVING ANTI-COAGULANT THERAPY” (NOVARTIS AG, priority 2010, published 2014)
